Where two headings read alike, the source gives them in different places.
Experiments:
[1] = tested on: AMO-1 human multiple myeloma tumor cell line; test: AMO-1 cell viability assay (CellTiter-Glo, 24 hours); assay type: cell-based; conditions: Homo sapiens, AMO1, 24 h, read-out: AMO-1 Viability IC50 (μM, 10% FBS), 10% FBS, 24 hours of compound treatment
Description: (§1) Each concentration was tested in duplicate at least 3 independent times. A luminescent signal proportional to the number of viable cells following 24 hours of compound treatment was determined using the CellTiter-Glo® Luminescent Cell Viability Assay according to the manufacturer's recommendations (Promega Corp., Madison, WI). The plates were read in a Perkin Elmer Envision using a Luminescence protocol. To generate dose response curves the data is normalized to percent viability by setting the averages of the staurosporine (10 μM) and DMSO only control wells to 0% and 100% viability respectively.

[2] = tested on: NCI-H929 human multiple myeloma tumor cell line; test: NCI-H929 cell viability assay (CellTiter-Glo, 24 hours); assay type: cell-based; conditions: Homo sapiens, NCI-H929, 24 h, read-out: H929 Viability IC50 (μM, 10% FBS), 10% FBS, 24 hours of compound treatment
Description: as §1

GST-MCL-1 = GST-MCL-1 (Homo sapiens, UniProt Q07820); test: TR-FRET MCL-1 binding assay (competition with probe F-Bak)
Method in brief: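 Displacement of F-Bak from GST-MCL-1 is detected by time-resolved FRET with a Tb-labelled anti-GST antibody, with excitation 340/35 nm and emission 520/525 and 495/510 nm, after 2 hours at room temperature. Compounds were titrated in 11 three-fold steps starting at 25 μM final, in buffer alone or in 10% HS.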

[3] = MCL-1 Binding Ki (nM, 10% HS), in the presence of 10% HS (human serum)
[4] = without HS, read-out: MCL-1 Binding Ki

Sequence of GST-MCL-1 (Q07820 whole entry): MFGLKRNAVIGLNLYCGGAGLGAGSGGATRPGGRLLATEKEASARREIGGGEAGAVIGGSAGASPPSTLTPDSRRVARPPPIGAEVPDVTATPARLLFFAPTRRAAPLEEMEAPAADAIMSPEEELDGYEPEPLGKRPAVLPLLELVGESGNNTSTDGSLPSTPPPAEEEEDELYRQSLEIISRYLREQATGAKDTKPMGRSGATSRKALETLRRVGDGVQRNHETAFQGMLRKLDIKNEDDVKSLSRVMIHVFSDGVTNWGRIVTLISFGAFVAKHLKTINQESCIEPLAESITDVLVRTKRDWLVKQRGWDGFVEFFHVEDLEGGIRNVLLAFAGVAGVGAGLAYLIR

Row | SMILES | IC50 [1] | IC50 [2] | Ki (GST-MCL-1; [3]) | Ki (GST-MCL-1; [4])
1 | Cc1c(Cl)c2c(Cl)c(C)c1-c1c(-c3ccc(F)cc3)sc3ncnc(c13)O[C@@H](C(=O)O)Cc1cc(ccc1OCc1ccnc(-c3ccc(O[C@H]4CO[C@H]5[C@@H]4OC[C@H]5O)cc3)n1)OC[C@@H](CN1CCN(C)CC1)O2 [Example 161, (7R,16R)-19,23-dichloro-1-(4-fluorophenyl)-10-{[2-(4-{[(3S,3aR,6R,6aR)-6-hydroxyhexahydrofuro[3,2-b]furan-3-yl]oxy}phenyl)pyrimidin-4-yl]methoxy}-20,22-dimethyl-16-[(4-methylpiperazin-1-yl)methyl]-7,8,15,16-tetrahydro-18,21-etheno-13,9-(metheno)-6,14,17-trioxa-2-thia-3,5-diazacyclononadeca[1,2,3-cd]indene-7-carboxylic Acid] | 0.000262 µM | 0.000502 µM | 0.141 nM | 0.002 nM
2 | CO[C@@H]1CO[C@H]2[C@@H]1OC[C@H]2OCCOCCOc1nccc(COc2ccc3cc2C[C@H](C(=O)O)Oc2ncnc4sc(-c5ccc(F)cc5)c(c24)-c2c(C)c(Cl)c(c(Cl)c2C)O[C@H](CN2CCN(C)CC2)CO3)n1 [Example 133, (7R,16R)-19,23-dichloro-1-(4-fluorophenyl)-10-({2-[2-(2-{[(3R,3aR,6R,6aR)-6-methoxyhexahydrofuro[3,2-b]furan-3-yl]oxy}ethoxy)ethoxy]pyrimidin-4-yl}methoxy)-20,22-dimethyl-16-[(4-methylpiperazin-1-yl)methyl]-7,8,15,16-tetrahydro-18,21-etheno-13,9-(metheno)-6,14,17-trioxa-2-thia-3,5-diazacyclononadeca[1,2,3-cd]indene-7-carboxylic Acid] | 0.00324 µM | 0.00879 µM | 0.168 nM | 0.044 nM
3 | COCCOCCOCCOCCOCCOCCOCCOCCOCCOCCOCCC(=O)NCc1ccc(-c2nccc(COc3ccc4cc3C[C@H](C(=O)O)Oc3ncnc5sc(-c6ccc(F)cc6)c(c35)-c3c(C)c(Cl)c(c(Cl)c3C)O[C@H](CN3CCN(C)CC3)CO4)n2)cc1 [Example 50, (7R,16R)-19,23-dichloro-1-(4-fluorophenyl)-20,22-dimethyl-16-[(4-methylpiperazin-1-yl)methyl]-10-({2-[4-(35-oxo-2,5,8,11,14,17,20,23,26,29,32-undecaoxa-36-azaheptatriacontan-37-yl)phenyl]pyrimidin-4-yl}methoxy)-7,8,15,16-tetrahydro-18,21-etheno-13,9-(metheno)-6,14,17-trioxa-2-thia-3,5-diazacyclononadeca[1,2,3-cd]indene-7-carboxylic Acid] | 0.0676 µM | 0.103 µM | 0.513 nM | 0.199 nM
4 | Cc1c(Cl)c2c(Cl)c(C)c1-c1c(-c3ccc(F)cc3)sc3ncnc(c13)O[C@@H](C(=O)O)Cc1cc(ccc1OCc1ccnc(-c3cccc(S(=O)(=O)N4CCOCC4)c3)n1)OC[C@@H](CN1CCN(C)CC1)O2 [Example 149, (7R,16R)-19,23-dichloro-1-(4-fluorophenyl)-20,22-dimethyl-16-[(4-methylpiperazin-1-yl)methyl]-10-({2-[3-(morpholine-4-sulfonyl)phenyl]pyrimidin-4-yl}methoxy)-7,8,15,16-tetrahydro-18,21-etheno-13,9-(metheno)-6,14,17-trioxa-2-thia-3,5-diazacyclononadeca[1,2,3-cd]indene-7-carboxylic Acid] | 0.000363 µM | 0.0014 µM | 0.14 nM | 0.006 nM
5 | Cc1c(Cl)c2c(Cl)c(C)c1-c1c(-c3ccc(F)cc3)sc3ncnc(c13)O[C@@H](C(=O)O)Cc1cc(ccc1OCc1ccnc(C3(COCCOC[C@H]4COCCO4)CCCCC3)n1)OC[C@@H](CN1CCN(C)CC1)O2 [Example 102, (7R,16R)-19,23-dichloro-10-[(2-{1-[(2-{[(2R)-1,4-dioxan-2-yl]methoxy}ethoxy)methyl]cyclohexyl}pyrimidin-4-yl)methoxy]-1-(4-fluorophenyl)-20,22-dimethyl-16-[(4-methylpiperazin-1-yl)methyl]-7,8,15,16-tetrahydro-18,21-etheno-13,9-(metheno)-6,14,17-trioxa-2-thia-3,5-diazacyclononadeca[1,2,3-cd]indene-7-carboxylic Acid] | 0.00029 µM | 0.000835 µM | 3.27 nM | 0.229 nM
6 | COCCOCCOCC1(F)CC=C(c2nccc(COc3ccc4cc3C[C@H](C(=O)O)Oc3ncnc5sc(C6CCC6)c(c35)-c3c(C)c(Cl)c(c(Cl)c3C)O[C@H](CN3CCN(C)CC3)CO4)n2)CC1 (single isomer, unassigned) [Example 130, (7R,16R)-19,23-dichloro-1-cyclobutyl-10-({2-[(4R*)-4-fluoro-4-{[2-(2-methoxyethoxy)ethoxy]methyl}cyclohex-1-en-1-yl]pyrimidin-4-yl}methoxy)-20,22-dimethyl-16-[(4-methylpiperazin-1-yl)methyl]-7,8,15,16-tetrahydro-18,21-etheno-13,9-(metheno)-6,14,17-trioxa-2-thia-3,5-diazacyclononadeca[1,2,3-cd]indene-7-carboxylic Acid] | 0.000309 µM | 0.000489 µM | 1.74 nM | 0.026 nM
7 | COC1CC2(C1)CN(c1nccc(COc3ccc4cc3C[C@H](C(=O)O)Oc3ncnc5sc(-c6ccc(F)cc6)c(c35)-c3c(C)c(Cl)c(c(Cl)c3C)O[C@H](CN3CCN(C)CC3)CO4)n1)C2 [Example 79, (7R,16R)-19,23-dichloro-1-(4-fluorophenyl)-10-{[2-(6-methoxy-2-azaspiro[3,3]heptan-2-yl)pyrimidin-4-yl]methoxy}-20,22-dimethyl-16-[(4-methylpiperazin-1-yl)methyl]-7,8,15,16-tetrahydro-18,21-etheno-9,13-(metheno)-6,14,17-trioxa-2-thia-3,5-diazacyclononadeca[1,2,3-cd]indene-7-carboxylic Acid] | 0.000418 µM | 0.00163 µM | 1 nM | 0.088 nM
8 | Cc1c(Cl)c2c(Cl)c(C)c1-c1c(-c3ccc(F)cc3)sc3ncnc(c13)O[C@@H](C(=O)O)Cc1cc(ccc1OCc1ccnc(-c3ccc(OCC4COCCOCCOCCOCCOCCO4)cc3)n1)OC[C@@H](CN1CCN(C)CC1)O2 (stereo partly drawn) [Example 123, (7R,16R)-19,23-dichloro-1-(4-fluorophenyl)-10-[(2-{4-[(1,4,7,10,13,16-hexaoxacyclooctadecan-2-yl)methoxy]phenyl}pyrimidin-4-yl)methoxy]-20,22-dimethyl-16-[(4-methylpiperazin-1-yl)methyl]-7,8,15,16-tetrahydro-18,21-etheno-13,9-(metheno)-6,14,17-trioxa-2-thia-3,5-diazacyclononadeca[1,2,3-cd]indene-7-carboxylic Acid] | 0.00128 µM | 0.00467 µM | 0.051 nM | 0.003 nM
9 | CO[C@@H]1CO[C@H]2[C@@H]1OC[C@H]2OCCOc1ccc(-c2nccc(COc3ccc4cc3C[C@H](C(=O)O)Oc3ncnc5sc(-c6ccc(F)cc6)c(c35)-c3c(C)c(Cl)c(c(Cl)c3C)O[C@H](CN3CCN(C)CC3)CO4)n2)cc1 [Example 154, (7R,16R)-19,23-dichloro-1-(4-fluorophenyl)-10-({2-[4-(2-{[(3R,3aR,6R,6aR)-6-methoxyhexahydrofuro[3,2-b]furan-3-yl]oxy}ethoxy)phenyl]pyrimidin-4-yl}methoxy)-20,22-dimethyl-16-[(4-methylpiperazin-1-yl)methyl]-7,8,15,16-tetrahydro-18,21-etheno-13,9-(metheno)-6,14,17-trioxa-2-thia-3,5-diazacyclononadeca[1,2,3-cd]indene-7-carboxylic Acid] | 0.000698 µM | 0.000643 µM | 0.191 nM | 0.018 nM
10 | COCCOCCOCCOCCOCC1(F)CC=C(c2nccc(COc3ccc4cc3C[C@H](C(=O)O)Oc3ncnc5sc(-c6ccc(F)cc6)c(c35)-c3c(C)c(Cl)c(c(Cl)c3C)O[C@H](CN3CCN(C)CC3)CO4)n2)CC1 (single isomer, unassigned) [Example 106, (7R,16R)-19,23-dichloro-10-({2-[(4R*)-4-fluoro-4-(2,5,8,11,14-pentaoxapentadecan-1-yl)cyclohex-1-en-1-yl]pyrimidin-4-yl}methoxy)-1-(4-fluorophenyl)-20,22-dimethyl-16-[(4-methylpiperazin-1-yl)methyl]-7,8,15,16-tetrahydro-18,21-etheno-13,9-(metheno)-6,14,17-trioxa-2-thia-3,5-diazacyclononadeca[1,2,3-cd]indene-7-carboxylic Acid] | 0.000216 µM | 0.000288 µM | 0.166 nM | 0.036 nM
11 | Cc1c(Cl)c2c(Cl)c(C)c1-c1c(-c3ccc(F)cc3)sc3ncnc(c13)O[C@@H](C(=O)O)Cc1cc(ccc1OCc1ccnc([C@]3(O)CCCC[C@H]3O)n1)OC[C@@H](CN1CCN(C)CC1)O2 [Example 39, (7R,16R)-19,23-dichloro-10-({2-[(1R,2R)-1,2-dihydroxycyclohexyl]pyrimidin-4-yl}methoxy)-1-(4-fluorophenyl)-20,22-dimethyl-16-[(4-methylpiperazin-1-yl)methyl]-7,8,15,16-tetrahydro-18,21-etheno-9,13-(metheno)-6,14,17-trioxa-2-thia-3,5-diazacyclononadeca[1,2,3-cd]indene-7-carboxylic Acid] | 0.00119 µM | 0.00353 µM | 0.193 nM | 0.042 nM
